Test results reported in patent US20050064382A1, “Method of prevention of lysosomal leakage in eukaryotic cells by using 6-methyluracil based water-soluble compounds and method of producing thereof” (priority 2002, published 2005).

How the values were obtained:
[1] = Water solubility; type: physicochemical
[2] = tested on: Drosophila; assay: X-ray caused loss of X-chromosomes in late oocyte of Drosophila; type: in vivo; conditions: 1000 Roentgens
[3] = tested on: Drosophila; assay: Sterol-deficit diet and both drugs: frequency of X-chromosomes loss in late oocytes of Drosophila; type: in vivo; conditions: yeast of wild type
Description: The classic genetic model was used, based on the well-known method: the frequency of mutations in Drosophila (fruit flies) caused by X-rays. It is known that the frequency of these mutations can be increased by adding to the food of females certain membrane destabilizers (we used Polyene Antibiotics—Amphotericin B), or by the use of a special diet. Like all insects, Drosophila obtain all of their sterols from food (yeast for Drosophila). A special diet rich with Nistatin (Polyene antibiotic) resistant yeast was used.
The frequency of the loss of x-chromosomes (males excluded) was measured after crossing with the […]. Females were given a dose of 1000 Roentgens 5 days before being given the food additive or “special diet”.
Influence of sterol-deficit diet and both drugs on the frequency of X-chromosomes loss in late oocytes of Drosophila. Groups 1-4 received yeast of wild type, groups 5,6 (diet) received nistatin resistant yeasts meaning groups 5,6 had abnormal sterols in membranes: […]

| solubility [1] [µg/mL] | SMILES | Frequency of the loss of X-chromosomes, % ([2]; 1.0 mkg/female) [%] | Frequency of the loss of X-chromosomes, % ([2]; 5.0 mkg/female) [%] | Frequency of the loss of X-chromosomes, % ([2]; 10.0 mkg/female) [%] | Frequency of the loss of X-chromosomes, % ([2]; 15.0 mkg/female) [%] | Frequency of the loss of X-chromosomes, % ([2]; 20.0 mkg/female) [%] | Frequency of X-Chromosomes loss, % [3] [%] |
| --- | --- | --- | --- | --- | --- | --- | --- |
| < 3000 | O=C1CCC(N2C(=O)c3ccccc3C2=O)C(=O)N1 (stereo not shown) [thalidomides, thalidomide] | – | – | – | – | – | – |
| – | C[C@@H]1[C@H](O)[C@@H](C)/C=C/C=C/C=C/C=C/C=C/C=C/C=C/[C@H](O[C@@H]2O[C@H](C)[C@@H](O)[C@H](N)[C@@H]2O)C[C@@H]2O[C@](O)(C[C@@H](O)C[C@@H](O)[C@H](O)CC[C@@H](O)C[C@@H](O)CC(=O)O[C@H]1C)C[C@H](O)[C@H]2C(=O)O [Amphotericin B, reference compound] | 1.4 ± 0.19 | 2.1 ± 0.21 | 3.6 ± 0.35 | 4.1 ± 0.41 | 4.2 ± 0.61 | 4.3 ± 0.29 |
